Entries after “also recorded” stand apart in the source; their conditions may differ. Like-named read-outs stand apart in the source and are kept apart here.
Legend:
[1] = FA direct binding of antibiotics/compounds to NBD-lipid II probe; details: for Effect on FA signal of the NBD-lipid II probe (direct binding, no protein): increasing compound concentrations, probe 0.33 µM; for Kd: antibiotic binding to probe 0.33 µM, 10 mM Tris-HCl pH 7.5, 3% DMSO
Method: Serial dilutions of each antibiotic in 10 mM Tris-HCl pH 7.5 and 3% DMSO were prepared in 384-well plates (30 µL) in triplicates. […] Blank samples without antibiotic were also prepared for background fluorescence estimation. […] The data were analysed as described above with [R] and [RL] are, respectively, the equilibrium concentration of the compound and the compound-probe complex.

FtsN = molecular target: T1, FtsN (Escherichia coli, UniProt P29131); test: FA direct binding of NBD-lipid II probe to FtsN (negative control); details: FtsN as negative control
T1 construct: made in house
Method: (§1) Fluorescent anisotropy (FA) experiments were performed in a black 384-well plate (Greiner Bio-One Polystyrene Non-Binding Flat Bottom) in triplicates. Serial dilutions of the protein (PBP1bγ, FtsW, FtsW-PBP3 or MurJ) in the appropriate buffer and the NBD-lipid II probe was added at a 0.33 µM final concentration. FtsN was used as a negative control under the same conditions. […] Fluorescence polarization (FP) and anisotropy (A) values were calculated using the equations FP = (I|| − G·I┴)/I||+ G·I┴) and A = 2· FP/3-FP respectively, where I|| is the fluorescence intensity of emitted light parallel to excitation, I┴ is the fluorescence intensity of emitted light perpendicular to excitation, and G is the correction factor that correct for instrument bias. The G factor is experimentally determined using the probe alone. […] For Kd determination, the fluorescence anisotropy data were analysed by nonlinear curve fitting to the Eq. (1) using GraphPad Prism 6.0 software[27].1 (A−Amin)/(Amax−Amin)=[RL]=(Kd+[R]+[L])−[(Kd+R]+[L])^2−4[R][L]]^1/2 Where A, Amin, Amax are the observed, the minimum and the maximum anisotropy, respectively, and [R], [L] and [RL] are the equilibrium concentration of the protein, the probe; and the protein-probe complex, respectively; Kd is the dissociation constant between the protein and the probe.

PBP1b [2] = molecular target: T2, PBP1b (Escherichia coli, UniProt P02919); test: Fluorescence anisotropy (FA) direct binding of NBD-lipid II probe to PBP1b; parameters: made in house; species or system E. coli; details: probe 0.33 µM
Method: as §1

FtsW [3] = molecular target: T3, FtsW (Escherichia coli, UniProt P0ABG4); test: FA direct binding of NBD-lipid II probe to FtsW; parameters: made in house; species or system E. coli; details: probe 0.33 µM
Method: as §1

FtsW-PBP3 [4] = molecular target: T4, FtsW-PBP3 (Escherichia coli, UniProt P0ABG4); test: FA direct binding of NBD-lipid II probe to FtsW-PBP3 complex; parameters: made in house; species or system E. coli; details: probe 0.33 µM
Method: as §1

MurJ [5] = molecular target: T5, MurJ (Escherichia coli, UniProt P0AF16); test: FA direct binding of NBD-lipid II probe to MurJ; parameters: made in house; species or system E. coli; details: probe 0.33 µM
Method: as §1

[6] = read-out: Kd (Lipid II), values from the literature, cited from earlier work
PBP1b [7] = system: PBP1b; parameters: method as in Terrak, M. et al. Mol. Microbiol. 34 (1999); details: ref Terrak, M. et al. Mol. Microbiol. 34 (1999), read-out: Km (Lipid II), values from the literature, cited from earlier work
MurJ [8] = molecular target: MurJ; parameters: method as in Bolla, J. R. et al. Nat. Chem. 10 (2018); details: native mass spectrometry, ref Bolla, J. R. et al. Nat. Chem. 10 (2018), read-out: Kd (Lipid II), values from the literature; cited from earlier work
FtsW [9] = molecular target: T3, FtsW; test: FA competition assay, FtsW:NBD-lipid II; details: read-out: Ki values (unlabelled-Lipid II); displacement of probe (0.33 µM) from FtsW (~1 µM)
Method: (§2) Fixed concentrations of NBD-lipid II (0.33 µM) and proteins (~1 µM, 50–80% FA saturation[29]) were used. Serial dilutions of each antibiotic,unlabelled lipid II, or control compounds were prepared in 384-well plates in triplicates. Blank samples without proteins were also prepared for background fluorescence estimation. The mixtures (30 µL) were allowed to reach equilibrium for 20 min at room temperature with gentle shaking and the FA signals were recorded at 21 °C using an Infinite F Plex (Tecan, Männedorf, Switzerland) microplate reader equipped with polarization filters with excitation and emission wavelengths at 485 nm and 535 nm respectively. The data were plotted FA in millianisotropy units (mA) as a function of test compound concentration in µM. For the analysis of the completion data, fluorescence anisotropy values were fitted to the Eq. (3) using GraphPad Prism 6.0 software[30].3 [RL]=[R]/[1+Kd/[L](1+[C]/)Ki] Where [RL] is concentration of the receptor-probe complex; [R] is the concentration of the protein; [L] is the concentration of the probe; [C] is the concentration of test compound; Kd is the dissociation constant between the receptor and the probe (determined above); Ki is dissociation constant between the test compound and its target.

MurJ [10] = molecular target: T5, MurJ; test: FA competition assay, MurJ:NBD-lipid II; details: read-out: Ki values (unlabelled-Lipid II); displacement of probe (0.33 µM) from MurJ (~1 µM)
Method: as §2

PBP1b [11] = molecular target: T2, PBP1b; test: FA competition assay, PBP1b:NBD-lipid II; details: read-out: Ki values (unlabelled-Lipid II); displacement of probe (0.33 µM) from PBP1b (~1 µM)
Method: as §2

FtsW-PBP3 [12] = molecular target: T4, FtsW-PBP3; test: FA competition assay, FtsW-PBP3:NBD-lipid II; details: read-out: Ki values (unlabelled-Lipid II); displacement of probe (0.33 µM) from FtsW-PBP3 (~1 µM)
Method: as §2

[13] = ref Lo, M. C. et al. J. Am. Chem. Soc. 122 (2000); read-out: IC50 (Lipid II), values from the literature; cited from earlier work

T5 sequence (P0AF16 whole entry): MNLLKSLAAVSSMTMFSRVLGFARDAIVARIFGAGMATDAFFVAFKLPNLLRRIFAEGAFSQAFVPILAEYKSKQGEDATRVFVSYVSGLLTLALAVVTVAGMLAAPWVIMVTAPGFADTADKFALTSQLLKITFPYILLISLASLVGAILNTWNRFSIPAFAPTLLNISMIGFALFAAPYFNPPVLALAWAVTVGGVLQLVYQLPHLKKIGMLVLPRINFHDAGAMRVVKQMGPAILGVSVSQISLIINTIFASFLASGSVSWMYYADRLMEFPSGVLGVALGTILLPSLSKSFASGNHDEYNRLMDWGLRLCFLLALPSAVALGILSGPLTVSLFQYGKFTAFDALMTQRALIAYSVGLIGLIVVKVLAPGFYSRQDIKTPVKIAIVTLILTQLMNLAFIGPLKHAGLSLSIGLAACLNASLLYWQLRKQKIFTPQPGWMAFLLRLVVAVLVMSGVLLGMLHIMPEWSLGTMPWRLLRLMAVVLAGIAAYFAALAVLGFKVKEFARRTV
T2 sequence (P02919 46-844): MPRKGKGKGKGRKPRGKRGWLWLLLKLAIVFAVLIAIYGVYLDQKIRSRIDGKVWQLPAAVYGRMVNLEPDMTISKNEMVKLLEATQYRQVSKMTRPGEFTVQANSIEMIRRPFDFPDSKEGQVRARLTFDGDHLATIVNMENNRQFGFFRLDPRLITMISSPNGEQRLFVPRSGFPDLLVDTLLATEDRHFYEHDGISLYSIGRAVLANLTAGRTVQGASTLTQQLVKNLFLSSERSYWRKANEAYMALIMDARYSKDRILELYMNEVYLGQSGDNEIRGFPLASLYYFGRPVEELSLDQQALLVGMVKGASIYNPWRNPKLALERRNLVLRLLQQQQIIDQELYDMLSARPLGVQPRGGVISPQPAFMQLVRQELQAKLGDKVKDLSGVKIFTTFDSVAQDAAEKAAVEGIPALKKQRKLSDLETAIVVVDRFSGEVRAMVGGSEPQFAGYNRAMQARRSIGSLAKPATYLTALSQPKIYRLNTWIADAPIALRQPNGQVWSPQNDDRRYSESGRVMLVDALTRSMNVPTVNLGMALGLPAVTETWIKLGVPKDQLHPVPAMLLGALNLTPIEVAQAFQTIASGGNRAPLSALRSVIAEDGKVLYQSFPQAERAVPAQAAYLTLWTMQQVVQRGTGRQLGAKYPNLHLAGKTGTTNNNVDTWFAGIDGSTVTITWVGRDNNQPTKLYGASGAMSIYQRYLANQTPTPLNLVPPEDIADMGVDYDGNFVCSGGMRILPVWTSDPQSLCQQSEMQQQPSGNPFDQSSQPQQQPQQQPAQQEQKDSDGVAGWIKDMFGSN
T4 sequence (P0ABG4 whole entry): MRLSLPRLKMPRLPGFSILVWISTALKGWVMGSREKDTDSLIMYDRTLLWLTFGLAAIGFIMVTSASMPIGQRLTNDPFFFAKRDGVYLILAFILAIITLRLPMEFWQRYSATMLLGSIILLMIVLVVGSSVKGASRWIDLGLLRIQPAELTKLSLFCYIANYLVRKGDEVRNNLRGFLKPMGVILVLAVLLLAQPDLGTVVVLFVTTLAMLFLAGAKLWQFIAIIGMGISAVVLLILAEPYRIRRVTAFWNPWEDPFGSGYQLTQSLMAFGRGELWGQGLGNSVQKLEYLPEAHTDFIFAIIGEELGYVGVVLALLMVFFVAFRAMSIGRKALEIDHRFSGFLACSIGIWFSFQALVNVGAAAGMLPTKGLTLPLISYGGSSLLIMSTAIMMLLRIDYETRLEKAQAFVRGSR
T4 sequence (P0AD68 1-577, further chain): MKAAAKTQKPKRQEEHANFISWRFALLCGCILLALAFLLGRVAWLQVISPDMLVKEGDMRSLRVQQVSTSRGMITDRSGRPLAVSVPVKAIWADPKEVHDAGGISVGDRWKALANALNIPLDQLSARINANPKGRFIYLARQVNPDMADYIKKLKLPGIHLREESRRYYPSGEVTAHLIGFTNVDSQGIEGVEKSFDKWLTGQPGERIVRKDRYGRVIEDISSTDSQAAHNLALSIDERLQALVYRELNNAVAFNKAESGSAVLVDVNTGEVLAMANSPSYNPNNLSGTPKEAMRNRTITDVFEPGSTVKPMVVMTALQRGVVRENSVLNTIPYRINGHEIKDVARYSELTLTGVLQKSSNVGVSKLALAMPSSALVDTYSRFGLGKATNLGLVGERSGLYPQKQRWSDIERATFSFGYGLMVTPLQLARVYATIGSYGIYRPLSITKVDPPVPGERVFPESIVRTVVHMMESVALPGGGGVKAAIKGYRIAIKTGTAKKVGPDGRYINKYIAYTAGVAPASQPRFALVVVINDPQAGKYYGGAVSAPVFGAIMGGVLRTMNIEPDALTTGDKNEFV
T3 sequence (P0ABG4 whole entry): as the sequence (P0ABG4 whole entry) above
T1 sequence (P29131 whole entry): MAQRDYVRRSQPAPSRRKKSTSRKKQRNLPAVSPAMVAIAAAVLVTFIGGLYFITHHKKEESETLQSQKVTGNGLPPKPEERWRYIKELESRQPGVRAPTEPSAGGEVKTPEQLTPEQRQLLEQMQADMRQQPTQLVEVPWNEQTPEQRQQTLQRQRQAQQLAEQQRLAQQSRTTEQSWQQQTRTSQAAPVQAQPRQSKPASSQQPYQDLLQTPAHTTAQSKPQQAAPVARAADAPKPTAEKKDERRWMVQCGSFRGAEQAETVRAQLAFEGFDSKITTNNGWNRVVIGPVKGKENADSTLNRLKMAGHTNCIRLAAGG

Which results are given for `CC1(C)S[C@@H]2[C@H](NC(=O)[C@H](N)c3ccccc3)C(=O)N2[C@H]1C(=O)O` [Ampicillin]?
Effect on FA signal of the NBD-lipid II probe (direct binding, no protein) [1]: no significant effect on the FA of the probe; Effect on FA signal of the NBD-lipid II probe (direct binding, no protein) ([1]; listed as ampicillin): do not bind to the probe

For `CC(=O)N[C@H]1[C@H](O[C@H]2[C@H](O[C@H](C)C(=O)N[C@@H](C)C(=O)N[C@H](CCC(=O)N[C@@H](CCCCNc3ccc([N+](=O)[O-])c4nonc34)C(=O)N[C@H](C)C(=O)N[C@H](C)C(=O)O)C(=O)O)[C@@H](NC(C)=O)[C@@H](OP(=O)(O)OP(=O)(O)OC/C=C(/C)CC/C=C(/C)CC/C=C(/C)CC/C=C(/C)CC/C=C(/C)CC/C=C(/C)CC/C=C(/C)CC/C=C(/C)CC/C=C(\C)CC/C=C(\C)CCC=C(C)C)O[C@@H]2CO)O[C@H](CO)[C@@H](O)[C@@H]1O` [NBD-lipid II, Nitrobenzoxadiazole (NBD)-labelled Lipid II], which “Effect of FtsN on FA of the probe” value (FtsN) is on record?
Its value is “had no effect on the FA of the probe”.

And the Kd (PBP1b [2])?
The Kd was 0.5 ± 0.2 µM.

And the Kd (FtsW [3])?
The Kd was 0.3 ± 0.1 µM.

What about the Kd (FtsW-PBP3 [4]) of the same molecule?
Its Kd is 0.3 ± 0.1 µM.

And the Kd (MurJ [5])?
Its Kd is 1.1 ± 0.3 µM.

With `CN[C@H](CC(C)C)C(=O)N[C@H]1C(=O)N[C@@H](CC(N)=O)C(=O)N[C@H]2C(=O)N[C@H]3C(=O)N[C@H](C(=O)N[C@H](C(=O)O)c4cc(O)cc(O)c4-c4cc3ccc4O)[C@H](O)c3ccc(c(Cl)c3)Oc3cc2cc(c3O[C@@H]2O[C@H](CO)[C@@H](O)[C@H](O)[C@H]2O[C@H]2C[C@](C)(N)[C@H](O)[C@H](C)O2)Oc2ccc(cc2Cl)[C@H]1O` [Vancomycin, vancomycin] as the molecule, how does the Kd [1] read?
The Kd was 0.3 ± 0.1 µM.

And the “Effect on FA signal of the NBD-lipid II probe (direct binding, no protein)” value (“Effect … (direct binding, no protein)” below) [1]?
Its value is “induced an increase of FA”.

And the Kd ([6]; ref Münch, D. & Sahl, H.-G. Biochim. Biophys. Acta 1848 (2015))?
Its Kd is 0.5 µM.

For `C=C(C/C=C(\C)CCC=C(C)C)CCC(C)(C)/C=C/CC/C(C)=C/CO[C@@H](COP(=O)(O)O[C@H]1O[C@H](C(N)=O)[C@@](C)(O)[C@H](OC(N)=O)[C@H]1O[C@@H]1O[C@H](CO[C@@H]2O[C@H](CO)[C@@H](O)[C@H](O)[C@H]2O)[C@@H](O[C@@H]2O[C@H](C)[C@@H](O[C@@H]3O[C@H](C(=O)NC4=C(O)CCC4=O)[C@H](O)[C@H](O)[C@H]3O)[C@H](O)[C@H]2NC(C)=O)[C@H](O)[C@H]1NC(C)=O)C(=O)O` [moenomycin A, Moenomycin A], which “Effect … (direct binding, no protein)” value [1] is on record?
Its value is “did not significantly affect the FA signal”.

And the “Effect … (direct binding, no protein)” value ([1]; listed as Moenomycin)?
Its value is “no effect on the FA of the probe”.

For `N[C@@H](Cc1c[nH]c2ccccc12)C(=O)O` [tryptophan], which “Effect … (direct binding, no protein)” value [1] is on record?
Its value is “do not bind to the probe; also recorded: no significant effect on the FA of the probe”.

Which results are given for `CC(=O)N[C@H]1[C@H](O[C@H]2[C@H](O[C@H](C)C(=O)N[C@@H](C)C(=O)N[C@H](CCC(=O)N[C@@H](CCCCN)C(=O)N[C@H](C)C(=O)N[C@H](C)C(=O)O)C(=O)O)[C@@H](NC(C)=O)[C@@H](OP(=O)(O)OP(=O)(O)OC/C=C(/C)CC/C=C(/C)CC/C=C(/C)CC/C=C(/C)CC/C=C(/C)CC/C=C(/C)CC/C=C(/C)CC/C=C(/C)CC/C=C(\C)CC/C=C(\C)CCC=C(C)C)O[C@@H]2CO)O[C@H](CO)[C@@H](O)[C@@H]1O` [unlabelled lipid II, undecaprenyl-pyrophosphoryl-MurNAc(pentapeptide)-(beta-1,4)-GlcNAc]?
Effect on FA signal of the NBD-lipid II probe (direct binding, no protein) [1]: no direct effect on the FA of the probe; Effect on FA signal of the NBD-lipid II probe (direct binding, no protein) ([1]; listed as unlabeled lipid II): did not significantly affect the FA signal; Km (PBP1b [7]; listed as Lipid II): 1.8 ± 0.8 µM; Km (PBP1b [7]; listed as lipid II): ~2 µM; Kd (MurJ [8]): 2.9 µM; Ki (FtsW [9]): 5.9 ± 1.8 µM; Ki (MurJ [10]): 4.6 ± 0.8 µM; Ki (PBP1b [11]): 1.4 ± 0.2 µM; Ki (FtsW-PBP3 [12]): 6.8 ± 1 µM

For “nisin (ITSISLCTPGCKTGALMGCNMKTATCHCSIHVSK; not fully specified; Lantibiotic nisin-A; UniProt P13068 24-57, looked up)”, which Kd [1] is on record?
The Kd was 0.3 ± 0.1 µM.

What about the “Effect … (direct binding, no protein)” value [1] of the same molecule?
Its value is “induced an increase of FA”.

What about the Kd ([6]; ref 'T Hart, P. et al. Biochemistry 55 (2016)) of the same molecule?
The Kd was 0.0146 to 0.05 µM.

Which Kd [1] does the source give for ramoplanin here?
Its Kd is 0.23 ± 0.05 µM.

And the “Effect … (direct binding, no protein)” value [1]?
The value was “induced an increase of FA”.

And the IC50 [13]?
The IC50 was 0.3 µM.
